Measurements reported in US7491383B2, “Compositions having enhanced pharmacokinetic characteristics” (Allergan, Inc., priority 2001, dated 2009).
Read-outs that look alike come from different tables or passages of the source.

Experiments:
monkeys (sedation) = system: monkeys (sedation)
Protocol: This study involved cross overs and a one-week wash out in between the administration of the various compounds.
As done in a previous experiments, the following method was followed: • 1. 6 trained monkeys were placed in chairs and allowed to acclimate for approximately 30 minutes. • 2. Individual monkeys were brought into the “testing room” where they were allowed to adjust to the new environment for approximately 2 minutes. […] Sedation scores were recorded on an observation sheet. • 3. The monkey were returned to the group of animals assigned to this study. • 4. 2 baseline readings were done at T-0.5 and 0 hour. After the 0 hour reading one drop of the test compound was administered to the right eye. • 5. Steps 2 & 3 were repeated at T=0.5, 1, 2, 3 and 4 hour. • 6. Animals were monitored until they recover from effects of the drug. • 7. […] Test Compound Administration:
The scoring was conducted for each animal for the different test compounds. The average results are shown on table 1.

[1] = system: Rabbit Intraocular Pressure; settings: 20 μL of 0.2% on cornea, mean ± S.E.M., n = 8
From the text: In this study, the animals were placed into three groups consisting of a mix of age, size and sex.
One group of animals (both sexes) were used per screening study.
The following general procedure for administering the test compound employed in this study is presented below: • 1. Make sure that the 0.25% proparacaine Opthetic® mixture (topical local anesthetic), test compounds, and commercially available treats are available. • 2. Turn on the Digilab Modular One™ Pneuma Tonometer (pneumatonometer) [BioRad, Cambridge, Mass.]; it needs approximately 15 minutes to warm up. Turn on gas supply or air pump. • 3. Hold probe vertically with the point tip down and press “calibration check” for “zero”. • 4. Wipe the pneumatonometer probe with an alcohol swab, and inspect the tip membrane for holes. • 5. Set the external calibration device (air or water manometer) to 25 mm Hg, place the pneumatonometer probe in the calibration device to an ensure that it corresponded to 25±2 mm Hg. • 6. Obtain a rabbit. Make sure the recording data sheets are at hand. • 7. Gently restrain the rabbit via a commercial restrainer or a cotton towel. Measure the pupil diameter with the specialized ruler for each eye and record the values on the sheets provided. If the eyes are too dark to obtain a value by this method, a specialized penlight may be used. Obtain a pupil diameter measurement by shining the penlight on the cornea for one second. • 8. Slide the upper eyelid up the thumb and visually assess and score the degree of ocular surface redness. Record the value for each eye on the sheet provided. • 9. Put one drop of 0.25% proparacaine Opthetic® (50:50 mix of 0.5% proparacaine Opthetic®+Cellufresh®) on the surface of each eye. Wait one or more minutes for ophthetic to take effect. • 10. Place the pnematonometer tip on one eye at the site where the curvature of the cornea is greatest. Let the probe shank travel to the black line, not the red line. Persist until a stable reading with the standard deviation below 1.0 is obtained. Repeat the procedure for the contralateral eye. Record the data. (Note: If the animal is upset by the restraint, the reading will be artificially high and cannot be used. Use gentle restraint). • 11. At the end of the 0, 6, 24, 30, 48, 54, 72, 78 and 96 hour measurements, use an automatic pipette to apply 20 μL of the test compound to the surface of the cornea of one eye. After the 102 hour measurements, the eyes will be washed out with Refresh® and Prefrin®. • 12. Give the animal a treat and return the animal to its cage. • 13. Repeat steps 7 to 11 on the remaining animals in the group.
The following general procedure for measuring the effects of the test compound employed in this study is as follows: a reading is conducted at 0, 2, 4, 6, 24, 26, 28, 30, 48, 50, 52, 54, 72, 74, 76, 78, 96, 98, 100, and 102 hours. The pneumatonometer is calibrated before use with a manometer and the probe tip is wiped with an alcohol swab. One drop of 0.25% proparacaine Opthetic®, a corneal anesthetic, is placed on the cornea. Allow sufficient time (approximately 1 minute) for it to anesthetize the cornea before placing the probe on the eye. The eye is gently opened by the person doing the tonometer reading. The probe is placed on the cornea at the point of greatest curvature and a stable reading is obtained. The probe is held parallel to the floor and perpendicular to the line of the rabbit's sight. The reading is repeated until a reasonable reading can be obtained. The piston should be between the red and black lines or at the black line on the probe.

Intra Ocular Pressure = settings: 0.131% Brimonidine and 0.126% linoleic acid
From the text: The treatment is an ion pair formulation of 0.131% Brimonidine and 0.126% linoleic acid.

With “tartrate of 5-bromo-6-(2-imidozolin-2-ylamino) quinoxaline [Brimonidine Tartrate, reference compound]” as the molecule, how does the “sedation compared with the other test compounds (in words)” value (monkeys (sedation); 0.2%, one drop right eye) read?
Its value is “more sedation than dosing with Brimonidine-linoleic acid”.

And the “SEDATION SCORE (average, scale S=0 to S=4)” value (“SEDATION SCORE” below) (monkeys (sedation); 0.2%, one drop right eye, time 0 hr (baseline, before dosing))?
Its value is 0.8.

And the “SEDATION SCORE” value (monkeys (sedation); 0.2%, one drop right eye, time 0.5 hr)?
The value was 0.8.

What about the “SEDATION SCORE” value (monkeys (sedation); 0.2%, one drop right eye, time 1 hr) of the same molecule?
The value was 1.7.

What about the “SEDATION SCORE” value (monkeys (sedation); 0.2%, one drop right eye, time 2 hr) of the same molecule?
The value was 2.6.

And the “SEDATION SCORE” value (monkeys (sedation); 0.2%, one drop right eye, time 3 hr)?
Its value is 2.5.

What about the “SEDATION SCORE” value (monkeys (sedation); 0.2%, one drop right eye, time 4 hr) of the same molecule?
The value was 2.7.

What about the “SEDATION SCORE” value (monkeys (sedation); 0.2%, one drop right eye, time −0.5 hr (baseline)) of the same molecule?
Its value is 0.7.

And the “observed state of the monkeys on average” value (monkeys (sedation); usually from the 2-hour time point to the end of observations)?
Its value is “sleepy and inactive with heavy eyes”.

Which results are given for `Brc1c(NC2=NCCN2)ccc2nccnc12.CCCCCC=CCC=CCCCCCCCC(=O)O` [Brimonidine-linoleic acid]?
INTRAOCULAR PRESSURE ([1]; time 0 hr (reading before first dose)): 25.8 ± 1.2 mm Hg; INTRAOCULAR PRESSURE ([1]; time 2 hr): 17.1 ± 1.0 mm Hg; INTRAOCULAR PRESSURE ([1]; time 4 hr): 21.1 ± 1.0 mm Hg; INTRAOCULAR PRESSURE ([1]; time 6 hr (dosed again after reading)): 23.9 ± 1.0 mm Hg; INTRAOCULAR PRESSURE ([1]; time 24 hr (dosed after reading)): 25.6 ± 0.5 mm Hg; INTRAOCULAR PRESSURE ([1]; time 26 hr): 19.9 ± 0.6 mm Hg; INTRAOCULAR PRESSURE ([1]; time 28 hr): 22.9 ± 0.8 mm Hg; INTRAOCULAR PRESSURE ([1]; time 30 hr (dosed after reading)): 23.0 ± 1.1 mm Hg; INTRAOCULAR PRESSURE ([1]; time 48 hr (dosed after reading)): 26.5 ± 1.0 mm Hg; INTRAOCULAR PRESSURE ([1]; time 50 hr): 20.4 ± 0.6 mm Hg; INTRAOCULAR PRESSURE ([1]; time 52 hr): 23.4 ± 0.7 mm Hg; INTRAOCULAR PRESSURE ([1]; time 54 hr (dosed after reading)): 24.1 ± 0.8 mm Hg; INTRAOCULAR PRESSURE ([1]; time 72 hr (dosed after reading)): 26.8 ± 0.9 mm Hg; INTRAOCULAR PRESSURE ([1]; time 74 hr): 21.1 ± 0.8 mm Hg; INTRAOCULAR PRESSURE ([1]; time 76 hr): 23.9 ± 1.1 mm Hg; INTRAOCULAR PRESSURE ([1]; time 78 hr (dosed after reading)): 25.2 ± 0.9 mm Hg; INTRAOCULAR PRESSURE ([1]; time 96 hr (dosed after reading)): 27.9 ± 1.1 mm Hg; INTRAOCULAR PRESSURE ([1]; time 98 hr): 20.1 ± 1.3 mm Hg; INTRAOCULAR PRESSURE ([1]; time 100 hr): 23.9 ± 0.7 mm Hg; INTRAOCULAR PRESSURE ([1]; time 102 hr): 25.3 ± 1.6 mm Hg; percent change with time of Intra Ocular Pressure (Intra Ocular Pressure; 0 hr (administration of complex)): 0.0 mm Hg; percent change with time of Intra Ocular Pressure (Intra Ocular Pressure; 1 hr after administration): −10.4 mm Hg; percent change with time of Intra Ocular Pressure (Intra Ocular Pressure; 2 hr after administration): −16.0 mm Hg; percent change with time of Intra Ocular Pressure (Intra Ocular Pressure; 4 hr after administration): −9.5 mm Hg; percent change with time of Intra Ocular Pressure (Intra Ocular Pressure; 6 hr after administration): −9.4 mm Hg
